Like-named read-outs stand apart in the source and are kept apart here. A value given as a limit tells only on which side of the number the result lay.

One experiment concerns the target PI3Kδ (p110δ/p85α) (Homo sapiens (Human), UniProt O00329). Put plainly: PI3Kδ scintillation proximity assay (Example A3). The class given is biochemical. The conditions noted are these: Assay A3, 20 μM ATP. An excerpt: Example A3: PI3Kδ Scintillation Proximity Assay
[γ-^33P]ATP (10 mCi/mL) was purchased from PerkinElmer (Waltham, Mass.). Lipid kinase substrate, D-myo-Phosphatidylinositol 4,5-bisphosphate (PtdIns(4,5)P2)D (+)-sn-1,2-di-O-octanoylglyceryl, 3-O-phospho linked (PIP2), CAS 204858-53-7, was purchased from Echelon Biosciences (Salt Lake City, Utah). PI3Kδ (p110δ/p85α) was purchased from Millipore (Bedford, Mass.). ATP, MgCl2, DTT, EDTA, MOPS and CHAPS were purchased from SigmaAldrich (St. Louis, Mo.). Wheat Germ Agglutinin (WGA) YSi SPA Scintillation Beads was purchased from GE healthcare life sciences (Piscataway, N.J.).
The kinase reaction was conducted in polystyrene 384-well matrix white plate from Thermo Fisher Scientific in a final volume of 25 μL. Inhibitors were first diluted serially in DMSO and added to the plate wells before the addition of other reaction components. The final concentration of DMSO in the assay was 0.5%. The PI3K assays were carried out at room temperature in 20 mM MOPS, pH 6.7, 10 mM MgCl2, 5 mM DTT and CHAPS 0.03%. Reactions were initiated by the addition of ATP, the final reaction mixture consisted of 20 μM PIP2, 20 μM ATP, 0.2 μCi [γ-^33P] ATP, 4 nM PI3Kδ. Reactions were incubated for 210 min and terminated by the addition of 40 μL SPA beads suspended in quench buffer: 150 mM potassium phosphate pH 8.0, 20% glycerol. 25 mM EDTA, 400 μM ATP. The final concentration of SPA beads was 1.0 mg/mL. After the plate sealing, plates were shaken overnight at room temperature and centrifuged at 1800 rpm for 10 minutes, the radioactivity of the product was determined by scintillation counting on Topcount (PerkinElmer). IC50 determination was performed by fitting the curve of percent control activity versus the log of the inhibitor concentration using the GraphPad Prism 3.0 software. IC50 data for the Examples is presented in Table 2 as determined by Assay A3.

The subject of the next experiment is SUDHL-6 cells. Put plainly: SUDHL-6 cell proliferation assay (Example B3). The class given is cell-based. Conditions: 3 days, Cell Titer-GLO ATP quantitation, read-out: SUDHL6 IC50. The protocol:
Example B3: SUDHL-6 Cell Proliferation Assay
SUDHL-6 cell line (diffuse large B cell lymphoma) was purchased from ATCC (Manassas, Va.) and maintained in the culture medium recommended (RPMI and 10% FBS). To measure the anti-proliferation activity of the compounds through ATP quantitation, the SUDHL-6 cells was plated with the culture medium (5000 cells/well/per 200 μl) into 96-well polystyrene clear black tissue culture plate (Greiner-bio-one through VWR, NJ) in the presence or absence of a concentration range of test compounds. After 3 days, Cell Titer-GLO Luminescent (Promega, Madison, Wis.) cell culture agent was added to each well for 10 minutes at room temperature to stabilize the luminescent signal. This determines the number of viable cells in culture based on quantitation of the ATP present, which signals the presence of metabolically active cells. Luminescence was measured with the TopCount 384 (Packard Bioscience through Perkin Elmer, Boston, Mass.). IC50 data for the Examples is presented in Table 3 determined by the assay of Example B3.
In general terms: In ATP-based viability assays light output follows the ATP content of the culture.

Chain of PI3Kδ (p110δ/p85α) (O00329 whole entry): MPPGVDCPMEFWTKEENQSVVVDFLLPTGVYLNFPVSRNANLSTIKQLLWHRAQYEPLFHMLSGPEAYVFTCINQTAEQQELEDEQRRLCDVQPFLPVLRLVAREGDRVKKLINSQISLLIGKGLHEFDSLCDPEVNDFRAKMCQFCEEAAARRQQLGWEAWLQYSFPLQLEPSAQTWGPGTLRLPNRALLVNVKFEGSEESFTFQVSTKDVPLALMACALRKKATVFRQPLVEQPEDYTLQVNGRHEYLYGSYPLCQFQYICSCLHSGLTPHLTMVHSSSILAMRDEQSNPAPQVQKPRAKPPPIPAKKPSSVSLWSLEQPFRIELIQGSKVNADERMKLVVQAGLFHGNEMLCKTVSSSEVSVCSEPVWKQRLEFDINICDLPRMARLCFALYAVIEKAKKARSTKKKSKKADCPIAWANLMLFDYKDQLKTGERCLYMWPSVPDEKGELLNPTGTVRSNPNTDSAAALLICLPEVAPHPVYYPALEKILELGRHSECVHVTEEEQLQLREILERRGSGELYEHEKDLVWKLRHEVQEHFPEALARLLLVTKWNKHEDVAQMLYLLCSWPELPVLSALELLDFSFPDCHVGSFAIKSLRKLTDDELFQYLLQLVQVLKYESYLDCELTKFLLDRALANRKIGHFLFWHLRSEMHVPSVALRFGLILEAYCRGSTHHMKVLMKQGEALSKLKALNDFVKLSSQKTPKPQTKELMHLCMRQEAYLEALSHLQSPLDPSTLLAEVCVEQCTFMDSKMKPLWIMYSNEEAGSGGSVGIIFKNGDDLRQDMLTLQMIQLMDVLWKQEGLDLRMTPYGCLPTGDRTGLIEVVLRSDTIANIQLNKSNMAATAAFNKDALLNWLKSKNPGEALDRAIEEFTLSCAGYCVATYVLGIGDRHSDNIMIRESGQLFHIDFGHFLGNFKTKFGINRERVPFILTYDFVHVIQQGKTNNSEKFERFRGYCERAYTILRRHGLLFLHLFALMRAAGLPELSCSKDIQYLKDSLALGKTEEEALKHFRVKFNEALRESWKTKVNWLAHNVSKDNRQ
Chain of PI3Kδ (p110δ/p85α) (P27986 whole entry partner): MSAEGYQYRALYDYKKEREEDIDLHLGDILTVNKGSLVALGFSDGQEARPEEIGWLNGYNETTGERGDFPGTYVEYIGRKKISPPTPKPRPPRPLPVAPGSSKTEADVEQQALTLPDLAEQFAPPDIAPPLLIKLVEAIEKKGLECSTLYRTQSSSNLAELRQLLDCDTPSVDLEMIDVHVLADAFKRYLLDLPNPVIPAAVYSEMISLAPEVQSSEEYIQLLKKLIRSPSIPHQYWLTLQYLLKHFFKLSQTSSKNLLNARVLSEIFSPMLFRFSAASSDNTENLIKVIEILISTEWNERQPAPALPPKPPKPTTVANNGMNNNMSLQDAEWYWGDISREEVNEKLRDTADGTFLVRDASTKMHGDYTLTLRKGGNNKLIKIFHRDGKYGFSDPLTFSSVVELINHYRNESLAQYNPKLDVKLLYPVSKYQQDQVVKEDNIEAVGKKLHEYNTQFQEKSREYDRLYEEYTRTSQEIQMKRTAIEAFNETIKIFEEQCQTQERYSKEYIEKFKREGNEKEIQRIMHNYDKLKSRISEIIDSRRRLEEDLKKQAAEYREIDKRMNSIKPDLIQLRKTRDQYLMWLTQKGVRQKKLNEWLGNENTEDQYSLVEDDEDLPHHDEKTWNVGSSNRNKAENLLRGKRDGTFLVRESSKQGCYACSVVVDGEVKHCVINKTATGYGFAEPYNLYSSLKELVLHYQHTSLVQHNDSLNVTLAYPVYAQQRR

Consider `CCOc1c(C(C)Nc2ncnc3scnc23)cc(Cl)c(F)c1C1CNC(=O)C1` (single isomer, unassigned) [Example 1A, 4-{3-chloro-6-ethoxy-2-fluoro-5-[1-([1,3]thiazolo[5,4-d]pyrimidin-7-ylamino)ethyl]phenyl}pyrrolidin-2-one], for which the IC50 (usually the concentration needed to halve the response being measured) on PI3Kδ (p110δ/p85α) is at most 100 nM; with SUDHL-6 cells (Homo sapiens, SU-DHL-6, 72 h) it was at most 500 nM.
As to `COc1c([C@H](C)Nc2ncnc3cccnc23)cc(Cl)c(C)c1-c1ccc(C(=O)N(C)C)nc1` [Example 3, 5-{3-Chloro-6-methoxy-2-methyl-5-[(1S)-1-(pyrido[3,2-d]pyrimidin-4-ylamino)ethyl]phenyl}-N,N-dimethylpyridine-2-carboxamide bis(trifluoroacetate)], the half-maximal inhibitory concentration (IC50) on PI3Kδ (p110δ/p85α) was at most 100 nM; with SUDHL-6 cells (Homo sapiens, SU-DHL-6, 72 h) it was at most 500 nM.
Taken in the same sequence, the figures for `CCOc1c([C@@H](C)Nc2ncnc3cccnc23)cc(Cl)c(F)c1[C@@H]1CNC(=O)C1` [Example 2A, 4-{3-chloro-6-ethoxy-2-fluoro-5-[1-(pyrido[3,2-d]pyrimidin-4-ylamino)ethyl]phenyl}pyrrolidin-2-one] were at most 100 nM and at most 500 nM.
Take `CCOc1c(C(C)Nc2ncnc3scnc23)cc(Cl)c(F)c1C1CNC(=O)C1` (single isomer, unassigned) [Example 1C, 4-{3-chloro-6-ethoxy-2-fluoro-5-[1-([1,3]thiazolo[5,4-d]pyrimidin-7-ylamino)ethyl]phenyl}pyrrolidin-2-one]: the concentration for half-maximal inhibition (IC50) against PI3Kδ (p110δ/p85α) was at most 100 nM; in the experiment on SUDHL-6 cells, at most 500 nM.
As to `CCNC(=O)c1c(C)c(Cl)cc(C(C)Nc2ncnc3cccnc23)c1-c1cc(F)cc(F)c1` (stereo not shown) [Example 4, 4-Chloro-N-ethyl-3′,5′-difluoro-3-methyl-6-[1-(pyrido[3,2-d]pyrimidin-4-ylamino)ethyl]biphenyl-2-carboxamide], the IC50 is at most 100 nM on PI3Kδ (p110δ/p85α) and at most 500 nM in the experiment with SUDHL-6 cells (Homo sapiens, SU-DHL-6, 72 h).
